Results on three compounds are retold here after patent US8722849B2, “Polypeptides” (Novo Nordisk A/S, priority 2011, dated 2014).

A word on the EC50: it is the concentration that produces a half-maximal response. The term solubility denotes how much of the substance goes into solution per volume.

Series [1] has as its target T1, human amylin receptor (amylin 3(a) receptor: human calcitonin receptor + RAMP-3) (Homo sapiens, UniProt O60896+P30988).
T1 construct: expressed in transfected cells; host or cells: BHK570
T1 sequence (P30988 25-474): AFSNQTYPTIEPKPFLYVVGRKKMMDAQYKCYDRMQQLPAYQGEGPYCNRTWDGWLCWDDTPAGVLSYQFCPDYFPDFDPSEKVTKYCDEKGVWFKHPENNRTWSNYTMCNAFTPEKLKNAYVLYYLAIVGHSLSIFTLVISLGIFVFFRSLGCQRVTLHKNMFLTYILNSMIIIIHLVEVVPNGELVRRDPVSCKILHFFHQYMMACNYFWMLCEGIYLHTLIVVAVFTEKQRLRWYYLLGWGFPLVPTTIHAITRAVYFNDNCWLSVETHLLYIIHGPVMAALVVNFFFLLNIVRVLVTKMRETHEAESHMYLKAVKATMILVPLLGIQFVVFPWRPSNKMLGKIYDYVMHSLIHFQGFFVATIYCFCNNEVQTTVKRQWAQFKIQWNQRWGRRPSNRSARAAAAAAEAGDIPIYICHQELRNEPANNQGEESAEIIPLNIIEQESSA
T1 sequence (O60896 24-148 partner): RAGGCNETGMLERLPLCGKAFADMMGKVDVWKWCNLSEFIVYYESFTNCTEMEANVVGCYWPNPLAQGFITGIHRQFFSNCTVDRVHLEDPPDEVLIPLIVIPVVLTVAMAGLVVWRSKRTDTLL
Description: Assay (II)a functional CRE-luciferase assay, human amylin receptor. The series is classed as cell-based. The conditions noted are these: Table 2; BHK amylin 3(a)-receptor/CRE-luc cells.

Series [2] deals with T2, human calcitonin receptor (Homo sapiens, UniProt P30988).
T2 construct: expressed in transfected cells; host or cells: BHK570
T2 sequence (P30988 25-474): T1 sequence (P30988 25-474)
Description: Assay (II)a functional CRE-luciferase assay, human calcitonin receptor. The series is classed as cell-based.

The nature of series [3]: Assay (III) ThT fibrillation assay for physical stability. The series is classed as physicochemical. From the text:
ASSAY (III)—ThT Fibrillation Assays for the Assessment of Physical Stability of Protein formulations Low physical stability of a polypeptide may lead to amyloid fibril formation, which is observed as well-ordered, thread-like macromolecular structures in the sample eventually resulting in gel formation. This has traditionally been measured by visual inspection of the sample. However, that kind of measurement is very subjective and depending on the observer. Therefore, the application of a small molecule indicator probe is much more advantageous. Thioflavin T (ThT) is such a probe and has a distinct fluorescence signature when binding to fibrils [Naiki et al. (1989) Anal. Biochem. 177, 244-249; LeVine (1999) Methods. Enzymol. […], 274-284]. The time course for fibril formation can be described by a sigmoidal curve with the following expression [Nielsen et al. (2001) Biochemistry 40, 6036-6046]: [formula] Here, F is the ThT fluorescence at the time t. The constant t0 is the time needed to reach 50% of maximum fluorescence. […] Few of those intermediates nucleate to form a template onto which further intermediates may assembly and the fibrillation proceeds. The lag-time corresponds to the interval in which the critical mass of nucleus is built up and the apparent rate constant is the rate with which the fibril itself is formed. Sample Preparation Samples were prepared freshly before each assay. Each sample composition is described in each example. The pH of the sample was adjusted to the desired value using appropriate amounts of concentrated NaOH and HClO4 or HCl. Thioflavin T was added to the samples from a stock solution in H2O to a final concentration of 1 μM. Sample aliquots of 200 μl were placed in a 96 well microtiter plate (Packard OptiPlate™-96, white polystyrene). Usually, four or eight replica of each sample (corresponding to one test condition) were placed in one column of wells. The plate was sealed with Scotch Pad (Qiagen). Incubation and Fluorescence Measurement Incubation at given temperature, shaking and measurement of the ThT fluorescence emission were done in a Fluoroskan Ascent FL fluorescence platereader or Varioskan platereader (Thermo Labsystems). The temperature was adjusted to 37° C. The orbital shaking was adjusted to 960 rpm with an amplitude of 1 mm in all the presented data. Fluorescence measurement was done using excitation through a 444 nm filter and measurement of emission through a 485 nm filter. Each run was initiated by incubating the plate at the assay temperature for 10 min. The plate was measured every 20 minutes for a desired period of time. Between each measurement, the plate was shaken and heated as described. Data Handling The measurement points were saved in Microsoft Excel format for further processing and curve drawing and fitting was performed using GraphPad Prism. The background emission from ThT in the absence of fibrils was negligible. The data points are typically a mean of four or eight samples and shown with standard deviation error bars. Only data obtained in the same experiment (i.e. samples on the same plate) are presented in the same graph ensuring a relative measure of fibrillation between experiments. The data set may be fitted to Eq. (1). However, since full sigmodial curves in this case are not always achieved during the measurement time, the degree of fibrillation is expressed as ThT fluorescence tabulated as the mean of the samples and shown with the standard deviation at various time points. Measurement of Initial and Final Concentrations The polypeptide concentration in each of the tested formulations were measured both before application in the ThT fibrillation assay (“Initial”) and after completion of the ThT fibrillation (“After ThT assay”). Concentrations were determined by reverse HPLC methods using a pramlintide standard as a reference. Before measurement after completion 150 μl was collected from each of the replica and transferred to an Eppendorf tube. […]

Series [4] can be described thus: Assay (IV) determination of solubility. The series is classed as physicochemical. The essentials: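 Stock ~500 nmol/ml in water; 1:1 with 100 mM buffer, pH 3.0–8.0 (glycylglycine ≤5.0, bistrispropane ≥6.0); 18 h RT; spin; HPLC quantitation of soluble polypeptide.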
Setting [5] is: bistrispropane buffer, pH 6, pH 6.0, read-out: Solubility pH 6.0.
Setting [6] is: bistrispropane buffer, pH 6.5, pH 6.5, read-out: Solubility pH 6.5.
[7] abbreviates: bistrispropane buffer, pH 7, pH 7.0, 18 hours at room temperature, Table 3, read-out: Solubility pH 7.0.
The mark [8] stands for this setting: bistrispropane buffer, pH 7, pH 7.0, read-out: Solubility pH 7.0.
The mark [9] stands for this setting: bistrispropane buffer, pH 7.5, pH 7.5, read-out: Solubility pH 7.5.
Setting [10] is: bistrispropane buffer, pH 8, pH 8.0, read-out: Solubility pH 8.0.
[11] abbreviates: glycylglycine buffer, pH 3, pH 3.0, read-out: Solubility pH 3.0.
[12] abbreviates: glycylglycine buffer, pH 4, pH 4.0, 18 hours at room temperature, Table 2, read-out: Solubility pH 4.0.
The mark [13] stands for this setting: glycylglycine buffer, pH 4, pH 4.0, read-out: Solubility pH 4.0.
Setting [14] is: glycylglycine buffer, pH 5, pH 5.0, read-out: Solubility pH 5.0.
The mark [15] stands for this setting: Table 7, human calcitonin (CTa) receptor.

Where two headings read alike, the source gives them in different places. Starred links: 1 amine or outer side, 2 acyl side, 3 side chain; linkers in the order of their positions; H or OH if unused. Positions of bridges follow the written chain, without caps; N, C: chain ends. Residues, ends and D or L forms follow the SMILES beside them. Groups on a side chain read outwards from the residue. *: point of attachment. C20 diacid = O=C(O)CCCCCCCCCCCCCCCCCCC(=O)*; C18 diacid = O=C(O)CCCCCCCCCCCCCCCCC(=O)*; γGlu = O=C(O)[C@H](CCC(=O)[*:2])N[*:1]; AEEA = NCCOCCOCC(=O)O

On to `CC[C@H](C)[C@H](NC(=O)[C@@H]1CCCN1C(=O)CNC(=O)[C@H](Cc1ccccc1)NC(=O)[C@H](CC(N)=O)NC(=O)[C@H](CC(N)=O)NC(=O)[C@H](CO)NC(=O)[C@H](CO)NC(=O)[C@H](Cc1c[nH]cn1)NC(=O)[C@H](CCCCNC(=O)COCCOCCNC(=O)COCCOCCNC(=O)CC[C@H](NC(=O)CCCCCCCCCCCCCCCCC(=O)O)C(=O)O)NC(=O)[C@H](CC(C)C)NC(=O)[C@H](Cc1ccccc1)NC(=O)[C@H](CCC(=O)O)NC(=O)[C@H](C)NC(=O)[C@H](CC(C)C)NC(=O)[C@H](CCCNC(=N)N)NC(=O)[C@H](CCC(N)=O)NC(=O)[C@@H](NC(=O)[C@H](C)NC(=O)[C@@H]1CSSC[C@H](NC(=O)[C@@H](N)CCCCN)C(=O)N[C@@H](CC(N)=O)C(=O)N[C@@H]([C@@H](C)O)C(=O)N[C@@H](C)C(=O)N[C@@H]([C@@H](C)O)C(=O)N1)[C@@H](C)O)C(=O)N[C@@H](CC(C)C)C(=O)N1CCC[C@H]1C(=O)N1CCC[C@H]1C(=O)N[C@H](C(=O)N[C@@H](CC(N)=O)C(=O)N[C@H](C(=O)NCC(=O)N[C@@H](CO)C(=O)N[C@@H](CC(N)=O)C(=O)N[C@H](C(=O)N[C@@H](Cc1ccc(O)cc1)C(N)=O)[C@@H](C)O)C(C)C)[C@@H](C)O` [Example 80, N-epsilon17-[2-(2-{2-[2-(2-{2-[(S)-4-Carboxy-4-(17-carboxyheptadecanoylamino)butyrylamino]ethoxy}ethoxy)acetylamino]ethoxy}ethoxy)acetyl]-[Glu14,Lys17]-pramlintide] (H-KCNTATCATQRLAEFLK([AEEA-AEEA-γGlu-C18 diacid])HSSNNFGPILPPTNVGSNTY-NH2; disulfide 2-7), for which the half-maximal effective concentration (EC50) in series [1] was 0.456 nM; in series [2] (Table 11, read-out: CTa receptor human EC50), 4.3 nM. In series [3] (ThT fibrillation assay), the “ThT pH 4.0 lag time (h)” value came out at 3 h. The solubility at 18 h in series [4] (setting [5]), in series [4] (setting [6]), in series [4] (setting [7]), in series [4] (setting [8]), in series [4] (setting [9]) and in series [4] (setting [10]) was over 200 µM in each case. In addition, the solubility at 18 h in series [4] (setting [11]), in series [4] (setting [12]), in series [4] (setting [13]) and in series [4] (setting [14]) was over 200 µM throughout.
“{C20 diacid-γGlu}-SSGSSGHCNTATCATQRLAEFLHHSSNNFGPILPPTNVGSNTY-NH2 (disulfide 8-13 (inferred); C-terminus assumed) [Example 44, N-alpha-[(S)-4-Carboxy-4-(19-carboxynonadecanoylamino)butyryl]-Ser-Ser-Gly-Ser-Ser-Gly-[His1,Glu14,His17]-pramlintide]”: the results for the 50% effective concentration (EC50) in series [1] and in series [2] (setting [15]) were 0.305 nM and 0.669 nM, respectively. In series [3] (ThT fibrillation assay), the “ThT pH 4.0 lag time (h)” value was 10.6 h. Further, the solubility at 18 h is 21 µM in series [4] (setting [5]); 20 µM in series [4] (setting [6]); 52 µM in series [4] (setting [8]); over 200 µM in series [4] (setting [9]); over 200 µM in series [4] (setting [10]); over 200 µM in series [4] (setting [11]). The solubility at 18 h in series [4] (setting [12]), in series [4] (setting [13]) and in series [4] (setting [14]) was over 200 µM in each case.
As to `CC[C@H](C)[C@H](NC(=O)[C@@H]1CCCN1C(=O)CNC(=O)[C@H](Cc1ccccc1)NC(=O)[C@H](CC(N)=O)NC(=O)[C@H](CCC(N)=O)NC(=O)[C@H](CO)NC(=O)[C@H](CO)NC(=O)[C@H](Cc1c[nH]cn1)NC(=O)[C@H](CCCNC(=N)N)NC(=O)[C@H](CC(C)C)NC(=O)[C@H](Cc1ccccc1)NC(=O)[C@H](CCC(=O)O)NC(=O)[C@H](C)NC(=O)[C@H](CC(C)C)NC(=O)[C@H](CCCNC(=N)N)NC(=O)[C@H](CCC(N)=O)NC(=O)[C@@H](NC(=O)[C@H](C)NC(=O)[C@@H]1CSSC[C@H](NC(=O)[C@H](CCC(=O)O)NC(=O)[C@H](CCCNC(=N)N)NC(=O)[C@H](CCC(=O)O)NC(=O)CC[C@H](NC(=O)CCCCCCCCCCCCCCCCCCC(=O)O)C(=O)O)C(=O)N[C@@H](CC(N)=O)C(=O)N[C@@H]([C@@H](C)O)C(=O)N[C@@H](C)C(=O)N[C@@H]([C@@H](C)O)C(=O)N1)[C@@H](C)O)C(=O)N[C@@H](CC(C)C)C(=O)N1CCC[C@H]1C(=O)N1CCC[C@H]1C(=O)N[C@H](C(=O)N[C@@H](CC(N)=O)C(=O)N[C@H](C(=O)NCC(=O)N[C@@H](CO)C(=O)N[C@@H](CC(N)=O)C(=O)N[C@H](C(=O)N1CCC[C@H]1C(N)=O)[C@@H](C)O)C(C)C)[C@@H](C)O` [Example 161, N-alpha-[(S)-4-Carboxy-4-(19-carboxynonadecanoylamino)butyryl]-Glu-Arg-[Glu1,Glu14,Arg17,Gln21,Pro37]-pramlintide] ({C20 diacid-γGlu}-ERECNTATCATQRLAEFLRHSSQNFGPILPPTNVGSNTP-NH2; disulfide 4-9 (inferred); C-terminus assumed), the figures for the EC50 in series [1] and in series [2] (setting [15]) were 0.232 nM and 1.13 nM, respectively. The “ThT pH 4.0 lag time” value in series [3] (Table 8), in series [3] (Table 9) and in series [3] (ThT fibrillation assay) was over 45 h in each case. The “ThT pH 4.0 lag time (h)” value in series [3] (ThT fibrillation assay) is given as over 45 h. The solubility at 18 h in series [4] (setting [5]) was over 200 µM; in series [4] (setting [6]), over 200 µM; in series [4] (setting [7]), over 200 µM; in series [4] (bistrispropane buffer, pH 7, pH 7.0, Table 8, read-out: Solubility pH 7.0) it was over 200 µM; in series [4] (bistrispropane buffer, pH 7, pH 7.0, Table 9, read-out: Solubility pH 7.0), over 200 µM; in series [4] (setting [8]), over 200 µM. Moreover, the solubility at 18 h in series [4] (bistrispropane buffer, pH 7.5, pH 7.5, Table 9, read-out: Solubility pH 7.5) was over 200 µM; in series [4] (setting [9]) it was over 200 µM; in series [4] (setting [10]), over 200 µM; in series [4] (setting [11]), over 200 µM; in series [4] (setting [12]), over 200 µM; in series [4] (setting [13]), over 200 µM. In series [4] (setting [14]), the solubility at 18 h was over 200 µM.
